According to publication PMC6199744, “Development of Chemical Proteomics for the Folateome and Analysis of the Kinetoplastid Folateome” (ACS Infectious Diseases, 2018):
Like-named read-outs stand apart in the source and are kept apart here.

Assays:
Format in all cases: binding
[1] = molecular target: T1, HeLa cell extract proteins (Homo sapiens, UniProt Q8IWA4)
T1 construct: endogenous in cells; host or cells: HeLa cell extract
T1 sequence (Q8IWA4 1-741): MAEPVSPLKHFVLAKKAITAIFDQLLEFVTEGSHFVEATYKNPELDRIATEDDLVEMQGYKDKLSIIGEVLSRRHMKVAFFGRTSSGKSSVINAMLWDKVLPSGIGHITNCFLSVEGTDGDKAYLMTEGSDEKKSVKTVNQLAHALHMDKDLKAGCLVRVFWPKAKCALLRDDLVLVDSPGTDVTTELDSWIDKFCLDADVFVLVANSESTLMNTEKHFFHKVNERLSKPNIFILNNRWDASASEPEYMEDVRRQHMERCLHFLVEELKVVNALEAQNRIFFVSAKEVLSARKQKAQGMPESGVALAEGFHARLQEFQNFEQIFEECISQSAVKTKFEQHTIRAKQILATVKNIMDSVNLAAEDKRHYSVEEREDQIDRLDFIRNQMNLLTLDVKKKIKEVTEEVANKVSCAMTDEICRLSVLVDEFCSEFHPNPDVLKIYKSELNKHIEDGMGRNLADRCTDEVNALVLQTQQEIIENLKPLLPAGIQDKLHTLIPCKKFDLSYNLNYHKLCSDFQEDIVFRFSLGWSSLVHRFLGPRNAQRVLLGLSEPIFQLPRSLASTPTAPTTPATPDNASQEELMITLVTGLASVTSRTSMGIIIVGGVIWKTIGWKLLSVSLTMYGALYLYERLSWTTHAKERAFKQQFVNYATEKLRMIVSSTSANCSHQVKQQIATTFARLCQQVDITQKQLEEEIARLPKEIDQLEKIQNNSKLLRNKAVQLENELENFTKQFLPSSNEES

[2] = molecular target: T2, HeLa cell extract proteins (Homo sapiens, UniProt Q9UBQ5)
T2 construct: endogenous in cells; host or cells: HeLa cell extract

[3] = molecular target: T3, HeLa cell extract proteins (Homo sapiens, UniProt P12236); details: captured protein SLC25A6; HeLa
T3 construct: endogenous in cells; host or cells: HeLa cell extract
T3 sequence (P12236 1-298): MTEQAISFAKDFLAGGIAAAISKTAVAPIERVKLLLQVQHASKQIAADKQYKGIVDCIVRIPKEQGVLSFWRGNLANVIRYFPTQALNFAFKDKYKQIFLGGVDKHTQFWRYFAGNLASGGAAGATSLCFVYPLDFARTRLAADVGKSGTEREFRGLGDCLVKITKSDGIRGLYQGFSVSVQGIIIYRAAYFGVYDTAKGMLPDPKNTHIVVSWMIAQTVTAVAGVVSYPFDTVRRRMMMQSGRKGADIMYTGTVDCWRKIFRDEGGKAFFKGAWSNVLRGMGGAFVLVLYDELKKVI

[4] = molecular target: T4, HeLa cell extract proteins (Homo sapiens, UniProt Q9NX61); details: captured protein TMEM161A; HeLa
T4 construct: endogenous in cells; host or cells: HeLa cell extract
T4 sequence (Q9NX61 29-479): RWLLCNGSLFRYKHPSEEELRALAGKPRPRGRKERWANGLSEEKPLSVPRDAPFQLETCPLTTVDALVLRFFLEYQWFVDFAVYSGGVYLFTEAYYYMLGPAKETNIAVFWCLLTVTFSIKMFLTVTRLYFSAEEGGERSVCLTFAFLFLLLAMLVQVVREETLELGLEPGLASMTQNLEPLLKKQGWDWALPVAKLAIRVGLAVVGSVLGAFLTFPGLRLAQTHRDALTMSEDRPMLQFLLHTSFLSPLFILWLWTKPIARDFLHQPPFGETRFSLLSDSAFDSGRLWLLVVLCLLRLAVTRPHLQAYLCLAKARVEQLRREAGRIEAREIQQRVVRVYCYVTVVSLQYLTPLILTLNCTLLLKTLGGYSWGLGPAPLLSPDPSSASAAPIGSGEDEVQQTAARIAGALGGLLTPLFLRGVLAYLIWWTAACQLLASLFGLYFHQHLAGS

[5] = molecular target: T5, HeLa cell extract proteins (Homo sapiens, UniProt Q9BSJ2); details: captured protein TUBGCP2; HeLa
T5 construct: endogenous in cells; host or cells: HeLa cell extract

[6] = molecular target: T6, HeLa cell extract proteins (Homo sapiens, UniProt Q9BVK8); details: HeLa; protein TMEM147
T6 construct: endogenous in cells; host or cells: HeLa cell extract
T6 sequence (Q9BVK8 1-224): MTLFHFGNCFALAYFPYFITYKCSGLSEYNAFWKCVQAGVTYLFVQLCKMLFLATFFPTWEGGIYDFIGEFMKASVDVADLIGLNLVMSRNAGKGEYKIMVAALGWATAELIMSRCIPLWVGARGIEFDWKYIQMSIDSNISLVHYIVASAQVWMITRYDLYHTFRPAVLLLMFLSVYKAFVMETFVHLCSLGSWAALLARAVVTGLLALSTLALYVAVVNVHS

[7] = molecular target: T7, HeLa cell extract proteins (Homo sapiens, UniProt P36957); details: protein DLST; HeLa
T7 construct: endogenous in cells; host or cells: HeLa cell extract
T7 sequence (P36957 68-453): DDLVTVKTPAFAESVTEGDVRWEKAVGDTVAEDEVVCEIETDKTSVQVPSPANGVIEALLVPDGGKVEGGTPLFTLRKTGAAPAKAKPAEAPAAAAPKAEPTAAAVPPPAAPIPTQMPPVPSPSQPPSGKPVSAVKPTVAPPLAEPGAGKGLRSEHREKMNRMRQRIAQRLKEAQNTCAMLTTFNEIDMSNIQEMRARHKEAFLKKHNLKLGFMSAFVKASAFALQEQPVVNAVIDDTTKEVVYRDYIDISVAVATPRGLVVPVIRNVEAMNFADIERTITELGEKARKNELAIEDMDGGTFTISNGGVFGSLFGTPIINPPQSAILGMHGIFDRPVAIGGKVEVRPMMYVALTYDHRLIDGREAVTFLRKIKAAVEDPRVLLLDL

[8] = molecular target: T8, HeLa cell extract proteins (Homo sapiens, UniProt P30048); details: protein PRDX3; HeLa
T8 construct: endogenous in cells; host or cells: HeLa cell extract
T8 sequence (P30048 62-256): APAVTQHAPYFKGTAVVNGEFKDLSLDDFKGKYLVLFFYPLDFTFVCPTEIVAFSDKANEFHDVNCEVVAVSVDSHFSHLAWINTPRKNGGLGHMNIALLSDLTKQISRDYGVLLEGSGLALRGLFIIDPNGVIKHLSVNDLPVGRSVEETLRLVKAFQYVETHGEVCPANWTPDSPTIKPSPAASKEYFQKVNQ

T2 sequence (Q9UBQ5 whole entry): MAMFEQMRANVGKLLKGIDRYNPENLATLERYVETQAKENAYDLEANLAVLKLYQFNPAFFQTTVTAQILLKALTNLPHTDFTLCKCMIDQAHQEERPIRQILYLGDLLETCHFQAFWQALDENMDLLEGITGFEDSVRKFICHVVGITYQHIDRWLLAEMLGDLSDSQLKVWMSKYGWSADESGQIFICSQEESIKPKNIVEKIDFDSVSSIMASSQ
T5 sequence (Q9BSJ2 whole entry): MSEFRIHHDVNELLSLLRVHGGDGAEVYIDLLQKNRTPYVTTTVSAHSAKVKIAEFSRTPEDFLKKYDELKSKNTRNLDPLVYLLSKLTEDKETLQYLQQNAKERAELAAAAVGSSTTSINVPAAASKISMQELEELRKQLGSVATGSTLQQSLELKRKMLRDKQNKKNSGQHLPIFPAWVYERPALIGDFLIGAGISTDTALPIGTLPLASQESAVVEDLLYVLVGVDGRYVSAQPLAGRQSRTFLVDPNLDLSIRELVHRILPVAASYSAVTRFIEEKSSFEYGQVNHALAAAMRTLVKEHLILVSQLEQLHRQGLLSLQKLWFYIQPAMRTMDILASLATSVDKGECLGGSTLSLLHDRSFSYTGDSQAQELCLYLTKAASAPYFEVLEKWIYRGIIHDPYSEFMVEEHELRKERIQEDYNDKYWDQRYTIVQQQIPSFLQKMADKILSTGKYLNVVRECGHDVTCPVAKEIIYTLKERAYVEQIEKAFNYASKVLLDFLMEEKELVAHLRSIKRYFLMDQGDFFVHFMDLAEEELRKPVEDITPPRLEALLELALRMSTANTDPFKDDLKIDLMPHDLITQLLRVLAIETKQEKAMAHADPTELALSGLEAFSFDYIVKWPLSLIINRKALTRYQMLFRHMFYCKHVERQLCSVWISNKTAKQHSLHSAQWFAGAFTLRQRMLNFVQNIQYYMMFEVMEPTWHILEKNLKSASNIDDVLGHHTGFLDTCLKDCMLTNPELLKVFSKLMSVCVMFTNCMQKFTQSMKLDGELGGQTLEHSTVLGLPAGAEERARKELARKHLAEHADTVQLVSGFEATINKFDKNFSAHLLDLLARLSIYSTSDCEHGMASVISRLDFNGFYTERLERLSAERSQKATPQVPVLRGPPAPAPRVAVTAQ

| SMILES | fold changes relative to vehicle control ([1]; protein MFN1, HeLa) | fold changes relative to vehicle control ([2]; protein EIF3K, HeLa) | fold changes relative to vehicle control [1] | fold changes relative to vehicle control [2] | fold changes relative to vehicle control [3] | fold changes relative to vehicle control [4] | fold changes relative to vehicle control [5] | fold changes relative to vehicle control [6] | fold changes relative to vehicle control [7] | fold changes relative to vehicle control [8] |
| --- | --- | --- | --- | --- | --- | --- | --- | --- | --- | --- |
| Nc1nc2c(c(=O)[nH]1)N(C=O)C(CNc1ccc(C(=O)N[C@@H](CCC(=O)O)C(=O)O)cc1)CN2 (some centres unmarked) [LEU, leucovorin] | 0.81 | 0.94 |  |  |  |  |  |  |  |  |
| Nc1nc2[nH]cc(CCc3ccc(C(=O)N[C@@H](CCC(=O)O)C(=O)O)cc3)c2c(=O)[nH]1 [PTX, pemetrexed] |  |  | 0.89 | 0.97 |  |  |  |  |  |  |
| CCCCCCOc1ccc(Cc2cnc(N)nc2N)cc1 [compound 1] |  |  |  |  | 0.98 | 0.76 | 0.76 | 0.72 | 1.31 | 1.11 |
| CCCCCCOc1cccc(Cc2cnc(N)nc2N)c1 [compound 2] |  |  |  |  | 1.04 | 1.02 | 1.01 | 0.97 | 1.34 | 1.52 |
| Nc1nc2cccc(-c3ccccc3)c2n1Cc1ccc(Cl)c(Cl)c1 [compound 3] |  |  |  |  | 1.01 | 0.94 | 0.99 | 0.96 | 1.17 | 0.99 |
| NCCOCCOCC(=O)Nc1nc2ncc(CNc3ccc(C(=O)NC(CCC(=O)O)C(=O)O)cc3)nc2c(=O)[nH]1 (centres unmarked) [compound 6] | 0.99 | 1.06 |  |  |  |  |  |  |  |  |
| NCCCNc1ccc(C(=O)NC(CCC(=O)O)C(=O)O)cc1 (centres unmarked) [compound 7] | 1.02 | 1.1 |  |  |  |  |  |  |  |  |
